Drawing on patent US10435361B2, “Kinase inhibitors” (Topivert Pharma Limited, priority 2013, dated 2019), this text covers IC50 and inhibition for 18 compounds.

A word on the IC50: it is the point on the concentration scale where inhibition reaches its midpoint. Broadly, the inhibition is the relative decrease from the control value, in per cent. High values mean a strong effect, low ones a weak effect.

Format in all cases: cell-based
The subject of assay [1] is PBMCs. Kind of assay: IL-2 and IFN gamma release in CD3/CD28 stimulated PBMC cells. To be noted: Homo sapiens, assay (c). How it is done: PBMCs from healthy subjects are separated from whole blood using a density gradient (Lymphoprep, Axis-Shield Healthcare). Cells are added to a 96 well plate pre-coated with a mixture of CD3/CD28 monoclonal antibodies (0.3 μg/mL eBioscience and 3 μg/mL BD Pharmingen respectively). Compound at the desired concentration is then added to the wells and the plate left for 3 days under normal tissue culture conditions. […] The IC50 is determined from the dose response curve.

For assay [2], the system named is PBMCs. Kind of assay: LPS-induced TNFα/IL-8 release in PBMC cells. To be noted: Homo sapiens, assay (b), read-out: IC50 Values for Inhibition of Cytokine Release PBMCs IL-8. How it is done: Peripheral blood mononuclear cells (PBMCs) from healthy subjects are separated from whole blood using a density gradient (Lymphoprep, Axis-Shield Healthcare). The PBMCs are seeded in 96 well plates and treated with compounds at the desired concentration for 2 hours before addition of 1 ng/mL LPS (Escherichia Coli 0111:B4 from Sigma Aldrich) for 24 hours under normal tissue culture conditions (37° C., 5% CO2). The supernatant is harvested for determination of IL-8 and TNFα concentrations by sandwich ELISA (Duo-set, R&D systems) and read on the fluorescence microplate reader (Varioskan® Flash, ThermoFisher Scientific).

In assay [3] the test system is PBMCs. In words: Cell mitosis assay in PBMCs. To be noted: Homo sapiens, PBMC, 5 μg/mL. The procedure:
Peripheral blood mononucleocytes (PBMCs) from healthy subjects are separated from whole blood (Quintiles, London, UK) using a density gradient (Histopaque®-1077, Sigma-Aldrich, Poole, UK). The PBMCs (3 million cells per sample) are subsequently treated with 2% PHA (phytohaemagglutinin, Sigma-Aldrich, Poole, UK) for 48 hr, followed by a 20 hr exposure to varying concentrations of test compounds. At 2 hr before collection, PBMCs are treated with demecolcine (0.1 μg/mL; Invitrogen, Paisley, UK) to arrest cells in metaphase. To observe mitotic cells, PBMCs are permeabilised and fixed by adding Intraprep (50 μL; Beckman Coulter, France), and stained with anti-phospho-histone 3 (0.26 ng/L; #9701; Cell Signalling, Danvers, Mass.) and propidium iodide (1 mg/mL; Sigma-Aldrich, Poole, UK) as previously described (Muehlbauer P. A. and Schuler M. J., Mutation Research, 2003, 537:117-130). Fluorescence is observed using an ATTUNE flow cytometer (Invitrogen, Paisley, UK), gating for lymphocytes.

Setting [4] is: read-out: IC50 Values for Inhibition of Cytokine Release PBMCs IL-2.
Where [5] appears, read: read-out: IC50 Values for Inhibition of Cytokine Release PBMCs IFNγ.

With `COCCOCCOCCOc1cc(Nc2nccc(Oc3ccc(NC(=O)Nc4cc(C(C)(C)C)cc(NS(=O)(=O)N5CCOCC5)c4OC)c4ccccc34)n2)cc(OC)c1` [83(b), N-(5-(tert-butyl)-2-methoxy-3-(3-(4-((2-((3-methoxy-5-(2-(2-(2-methoxyethoxy)ethoxy)-ethoxy)phenyl)amino)pyrimidin-4-yl)oxy)naphthalen-1-yl)ureido)phenyl)morpholine-4-sulfonamide], the IC50 in the assay with PBMCs [1] (setting [4]) came to 109 nM; in the assay on PBMCs [2] it was 3.7 nM.

`COc1cc(Nc2nccc(Oc3ccc(NC(=O)Nc4cc(C(C)(C)C)cc(NS(C)(=O)=O)c4OC)c4ccccc34)n2)cc(OCCOCCOCCO)c1` [83(c), N-(5-(tert-butyl)-3-(3-(4-((2-((3-(2-(2-(2-hydroxyethoxy)ethoxy)ethoxy)-5-methoxyphenyl)-amino)pyrimidin-4-yl)oxy)naphthalen-1-yl)ureido)-2-methoxyphenyl)methanesulfonamide]: the inhibition at 5 µg/mL with PBMCs [3] came to 57.1%. The IC50 with PBMCs [2] was found to be 1.8 nM.

On to `COc1cc(Nc2cc(Oc3ccc(NC(=O)Nc4cc(C(C)(C)C)cc(NS(C)(=O)=O)c4OC)c4ccccc34)ccn2)cc(C(=O)NCCN2CCOC(C)(C)C2)c1` [85(m), 3-[[4-[[4-[[5-tert-Butyl-3-(methanesulfonamido)-2-methoxyphenyl]-carbamoylamino]-1-naphthyl]oxy]-2-pyridyl]amino]-N-[2-(2,2-dimethylmorpholin-4-yl)ethyl]-5-methoxybenzamide], for which, in the assay with PBMCs [3], the inhibition at 5 µg/mL was determined as 26.4%. Also, the IC50 in the assay with PBMCs [2] was 1.8 nM.

`COc1cc(Nc2cc(Oc3ccc(NC(=O)Nc4cc(C(C)(C)C)cc(NS(C)(=O)=O)c4OC)c4ccccc34)ccn2)cc(C(=O)NCCN2C[C@@H](C)O[C@@H](C)C2)c1` [85(n), 3-[[4-[[4-[[5-tert-Butyl-3-(methanesulfonamido)-2-methoxyphenyl]-carbamoylamino]-1-naphthyl]oxy]-2-pyridyl]amino]-N-[2-[(2R,6S)-2,6-dimethylmorpholin-4-yl]ethyl]-5-methoxybenzamide] gave an inhibition at 5 µg/mL with PBMCs [3] of 26.6%. Moreover, the IC50 in the assay with PBMCs [2] was 1.9 nM.

In turn, `COCCOCCNC(=O)c1cc(Nc2cc(Oc3ccc(NC(=O)Nc4cc(C(C)(C)C)cc(NS(C)(=O)=O)c4OC)c4ccccc34)ccn2)cc(OC)c1` [85(u), 3-[[4-[[4-[[5-tert-Butyl-3-(methanesulfonamido)-2-methoxyphenyl]-carbamoylamino]-1-naphthyl]oxy]-2-pyridyl]amino]-5-methoxy-N-[2-(2-methoxyethoxy)-ethyl]benzamide] returned an inhibition at 5 µg/mL with PBMCs [3] of 38.4%. The IC50 in the assay with PBMCs [2] worked out at 1.4 nM.

As to `COCCNC(=O)c1cc(C(C)(C)C)cc(NC(=O)Nc2ccc(Oc3ccnc(Nc4cc(OC)cc(OCCOCCOCCOC)c4)n3)c3ccccc23)c1OC` [Example 43, 5-(tert-Butyl)-2-methoxy-3-(3-(4-((2-((3-methoxy-5-(2-(2-(2-methoxyethoxy)ethoxy)-ethoxy)phenyl)amino)pyrimidin-4-yl)oxy)naphthalen-1-yl)ureido)-N-(2-methoxyethyl)-benzamide], in the assay with PBMCs [2], the IC50 came out at 2 nM.

`COCCOCCOCCOc1cc(Nc2nccc(Oc3ccc(NC(=O)Nc4cc(C(C)(C)C)cc(C(=O)NCC(=O)O)c4OC)c4ccccc34)n2)cc(OC)c1` [Example 44, 2-(5-(tert-Butyl)-2-methoxy-3-(3-(4-((2-((3-methoxy-5-(2-(2-(2-methoxyethoxy)ethoxy)-ethoxy)phenyl)amino)pyrimidin-4-yl)oxy)naphthalen-1-yl)ureido)benzamido)acetic acid]: the IC50 in the assay on PBMCs [2] was found to be 86.8 nM.

In the case of `COc1cc(Nc2nccc(Oc3ccc(NC(=O)Nc4cc(C(C)(C)C)cc(NS(C)(=O)=O)c4OC)c4ccccc34)n2)cc(C(=O)C2CC2)c1` [Example 50, N-(5-(tert-Butyl)-3-(3-(4-((2-((3-(cyclopropanecarbonyl)-5-methoxyphenyl)amino)-pyrimidin-4-yl)oxy)naphthalen-1-yl)ureido)-2-methoxyphenyl)methanesulfonamide], in the assay on PBMCs [2], the IC50 worked out at 12.1 nM.

On to `C#Cc1cc(Nc2nccc(Oc3ccc(NC(=O)Nc4cc(C(C)(C)C)cc(C(=O)NC)c4OC)c4ccccc34)n2)cc(C(=O)N[C@@H](C)CN2CCOCC2)c1` [Example 60, (S)-5-(tert-Butyl)-3-(3-(4-((2-((3-ethynyl-5-((1-morpholinopropan-2-yl)carbamoyl)phenyl)amino)pyrimidin-4-yl)oxy)naphthalen-1-yl)ureido)-2-methoxy-N-methylbenzamide], for which, in the assay on PBMCs [2], the IC50 worked out at 2 nM.

Take `C#Cc1cc(Nc2nccc(Oc3ccc(NC(=O)Nc4cc(C(C)(C)C)cc(C(=O)NC)c4OC)c4ccccc34)n2)cc(C(=O)N[C@H](C)CN2CCOCC2)c1` [Example 61, (R)-5-(tert-Butyl)-3-(3-(4-((2-((3-ethynyl-5-((1-morpholinopropan-2-yl)carbamoyl)phenyl)amino)pyrimidin-4-yl)oxy)naphthalen-1-yl)ureido)-2-methoxy-N-methylbenzamide]: the IC50 in the assay on PBMCs [2] was 2.1 nM.

Turning to `C#Cc1cc(Nc2cc(Oc3ccc(NC(=O)Nc4cc(C(N)=O)cc(C(C)(C)C)c4)c4ccccc34)ccn2)cc(C(=O)NCCOCCOCCOC)c1` [Example 62, 3-((4-((4-(3-(3-(tert-Butyl)-5-carbamoylphenyl)ureido)naphthalen-1-yl)oxy)pyridin-2-yl)amino)-5-ethynyl-N-(2-(2-(2-methoxyethoxy)ethoxy)ethyl)benzamide], the IC50 stood at 32.2 nM with PBMCs [1] (setting [5]), 48.7 nM with PBMCs [1] (setting [4]) and 4.6 nM with PBMCs [2].

Turning to `COCCOCCOCCOc1cc(Nc2nccc(Oc3ccc(NC(=O)Nc4cc(C(C)(C)C)cc5[nH]c(=O)oc45)c4ccccc34)n2)cc(OC)c1` [Example 63, 1-(5-(tert-Butyl)-2-oxo-2,3-dihydrobenzo[d]oxazol-7-yl)-3-(4-((2-((3-methoxy-5-(2-(2-(2-methoxyethoxy)ethoxy)ethoxy)phenyl)amino)pyrimidin-4-yl)oxy)naphthalen-1-yl)urea], the IC50 in the assay on PBMCs [2] stood at 17.3 nM.

Take `COCCOCCOCCOc1cc(Nc2nccc(Oc3ccc(NC(=O)Nc4cc(C(C)(C)C)cc5nc(C)oc45)c4ccccc34)n2)cc(OC)c1` [Example 64, 1-(5-(tert-Butyl)-2-methylbenzo[d]oxazol-7-yl)-3-(4-((2-((3-methoxy-5-(2-(2-(2-methoxy-ethoxy)ethoxy)ethoxy)phenyl)amino)pyrimidin-4-yl)oxy)naphthalen-1-yl)urea]: in the assay on PBMCs [2], the IC50 was found to be 10.5 nM.

For the compound `C#Cc1cc(Nc2cc(Oc3ccc(NC(=O)Nc4cc(C(C)(C)C)cc(NS(C)(=O)=O)c4OC)c4ccccc34)ccn2)cc(C(=O)N[C@H](C)COCCOCCOC)c1` [Example 68, (R)-3-((4-((4-(3-(5-(tert-Butyl)-2-methoxy-3-(methylsulfonamido)phenyl)ureido)-naphthalen-1-yl)oxy)pyridin-2-yl)amino)-5-ethynyl-N-(1-(2-(2-methoxyethoxy)ethoxy)-propan-2-yl)benzamide], the IC50 in the assay on PBMCs [1] (setting [5]) came to 68.8 nM; in the assay on PBMCs [1] (setting [4]), 220 nM; in the assay with PBMCs [2] it was 2.8 nM.

In the case of `CCOc1c(NC(=O)Nc2ccc(Oc3ccnc(Nc4cc(OC)cc(OCCOCCOCCOC)c4)n3)c3ccccc23)cc(C(C)(C)C)cc1NS(C)(=O)=O` [Example 69, N-(5-(tert-butyl)-2-ethoxy-3-(3-(4-((2-((3-methoxy-5-(2-(2-(2-methoxyethoxy)ethoxy)-ethoxy)phenyl)amino)pyrimidin-4-yl)oxy)naphthalen-1-yl)ureido)phenyl)methane-sulfonamide], the figures for the IC50 in the assay with PBMCs [1] (setting [5]) and in the assay on PBMCs [2] were 2.2 nM and 1.6 nM, respectively.

Turning to `COCCOCCOCCOc1cc(Nc2cc(Oc3ccc(NC(=O)Nc4cc(C(C)(C)C)cc(C(=O)NC5COC5)c4OC)c4ccccc34)ccn2)cc(OC)c1` [Example 77, 5-(tert-Butyl)-2-methoxy-3-(3-(4-((2-((3-methoxy-5-(2-(2-(2-methoxyethoxy)ethoxy)ethoxy)-phenyl)amino)pyridin-4-yl)oxy)naphthalen-1-yl)ureido)-N-(oxetan-3-yl)benzamide], the IC50 with PBMCs [2] was 2 nM.

For `COc1c(NC(=O)Nc2ccc(Oc3ccnc(Nc4ccccc4)n3)c3ccccc23)cc(C(C)(C)C)cc1C(=O)NC1COC1` [Example 78, 5-(tert-Butyl)-2-methoxy-N-(oxetan-3-yl)-3-(3-(4-((2-(phenylamino)pyrimidin-4-yl)oxy)-naphthalen-1-yl)ureido)benzamide], the IC50 in the assay on PBMCs [2] worked out at 14 nM.

Regarding `COc1c(NC(=O)Nc2ccc(Oc3ccnc(Nc4ccccc4)c3)c(F)c2F)cc(C(C)(C)C)cc1C(=O)NC1COC1` [Example 82, 5-(tert-Butyl)-3-(3-(2,3-difluoro-4-((2-(phenylamino)pyridin-4-yl)oxy)phenyl)ureido)-2-methoxy-N-(oxetan-3-yl)benzamide], the IC50 in the assay on PBMCs [2] is 6.6 nM.
